In patent US8759528B2, “Piperidine derivatives, pharmaceutical compositions and uses thereof” (Boehringer Ingelheim International GmbH, priority 2011, dated 2014):

Target: T1, human ACC2 (Homo sapiens, UniProt O00763)
T1 construct: lacks the 128 amino acids at the N-terminus for increased solubility (nt 385-6966 in Genbank entry AJ575592); made in house; host or cells: insect cells (baculoviral expression system)
Test: ACC2 spectrophotometric 384 well assay (NADH-linked, coupled lactate dehydrogenase/pyruvate kinase)
Assay type: biochemical
Settings: hACC2 construct lacking the 128 N-terminal amino acids; 25° C., 340 nm, 15 minutes
Procedure: Spectrophotometric 384 Well Assay
Malonyl CoA formation by acetyl CoA carboxylases is stoichometrically linked to the consumption of ATP. ACC2 activity is measured in a NADH-linked kinetic method measuring ADP generated during the ACC reaction using a coupled lactate dehydrogenase/pyruvate kinase reaction.
For biological testing, a human ACC2 construct which lacks the 128 amino acids at the N-terminus for increased solubility (nt 385-6966 in Genbank entry AJ575592) is cloned. The protein is then expressed in insect cells using a baculoviral expression system. Protein purification is performed by anion exchange. All compounds are dissolved in dimethyl sulfoxide (DMSO) to a concentration of 10 mM.
Assay reactions are then carried out in 384-well plates, with hACC2 in an appropriate dilution and at final assay concentrations (f.c.) of 100 mM Tris (pH 7.5), 10 mM trisodium citrate, 25 mM KHCO3, 10 mM MgCl2, 0.5 mg/ml BSA, 3.75 mM reduced L-glutathione, 15 U/ml lactate dehydrogenase, 0.5 mM phosphoenolpyruvate, 15 U/ml pyruvate kinase, compounds at different concentrations at final DMSO concentrations of 1%.
The enzymatic reaction is then started by addition of a mixture of NADH, acetyl Coenzyme A (both […].) and ATP (500 uM f.c.). The decrease of the optical density (slope S) is then determined at 25° C. at a wavelength of 340 nm over 15 minutes in a spectrophotometric reader.
Each assay microtiter plate contains wells with vehicle instead of compound as controls for the non-inhibited enzyme (100% CTL; ‘HIGH’) and wells without acetyl-CoA as controls for non-specific NADH degradation (0% CTL; ‘LOW’).
The slope S is used for calculation of % CTL=(S(compound)−S(‘LOW’))/(S('HIGH)−S(‘LOW’))*100. Compounds will give values between 100% CTL (no inhibition) and 0% CTL (complete inhibition).
For IC50 value determination, the sample slope in the presence of the test compound after subtraction of the low controls (S(compound)−S(‘LOW’)) are used.
An IC50 value is derived from the compound slopes at different dosages after subtraction of the low controls (S(compound)−S(‘LOW’)) by non-linear regression curve fitting (equation y=(A+((B−A)/(1+((C/x)^D))))).

T1 sequence (O00763 129-2458 limits assumed): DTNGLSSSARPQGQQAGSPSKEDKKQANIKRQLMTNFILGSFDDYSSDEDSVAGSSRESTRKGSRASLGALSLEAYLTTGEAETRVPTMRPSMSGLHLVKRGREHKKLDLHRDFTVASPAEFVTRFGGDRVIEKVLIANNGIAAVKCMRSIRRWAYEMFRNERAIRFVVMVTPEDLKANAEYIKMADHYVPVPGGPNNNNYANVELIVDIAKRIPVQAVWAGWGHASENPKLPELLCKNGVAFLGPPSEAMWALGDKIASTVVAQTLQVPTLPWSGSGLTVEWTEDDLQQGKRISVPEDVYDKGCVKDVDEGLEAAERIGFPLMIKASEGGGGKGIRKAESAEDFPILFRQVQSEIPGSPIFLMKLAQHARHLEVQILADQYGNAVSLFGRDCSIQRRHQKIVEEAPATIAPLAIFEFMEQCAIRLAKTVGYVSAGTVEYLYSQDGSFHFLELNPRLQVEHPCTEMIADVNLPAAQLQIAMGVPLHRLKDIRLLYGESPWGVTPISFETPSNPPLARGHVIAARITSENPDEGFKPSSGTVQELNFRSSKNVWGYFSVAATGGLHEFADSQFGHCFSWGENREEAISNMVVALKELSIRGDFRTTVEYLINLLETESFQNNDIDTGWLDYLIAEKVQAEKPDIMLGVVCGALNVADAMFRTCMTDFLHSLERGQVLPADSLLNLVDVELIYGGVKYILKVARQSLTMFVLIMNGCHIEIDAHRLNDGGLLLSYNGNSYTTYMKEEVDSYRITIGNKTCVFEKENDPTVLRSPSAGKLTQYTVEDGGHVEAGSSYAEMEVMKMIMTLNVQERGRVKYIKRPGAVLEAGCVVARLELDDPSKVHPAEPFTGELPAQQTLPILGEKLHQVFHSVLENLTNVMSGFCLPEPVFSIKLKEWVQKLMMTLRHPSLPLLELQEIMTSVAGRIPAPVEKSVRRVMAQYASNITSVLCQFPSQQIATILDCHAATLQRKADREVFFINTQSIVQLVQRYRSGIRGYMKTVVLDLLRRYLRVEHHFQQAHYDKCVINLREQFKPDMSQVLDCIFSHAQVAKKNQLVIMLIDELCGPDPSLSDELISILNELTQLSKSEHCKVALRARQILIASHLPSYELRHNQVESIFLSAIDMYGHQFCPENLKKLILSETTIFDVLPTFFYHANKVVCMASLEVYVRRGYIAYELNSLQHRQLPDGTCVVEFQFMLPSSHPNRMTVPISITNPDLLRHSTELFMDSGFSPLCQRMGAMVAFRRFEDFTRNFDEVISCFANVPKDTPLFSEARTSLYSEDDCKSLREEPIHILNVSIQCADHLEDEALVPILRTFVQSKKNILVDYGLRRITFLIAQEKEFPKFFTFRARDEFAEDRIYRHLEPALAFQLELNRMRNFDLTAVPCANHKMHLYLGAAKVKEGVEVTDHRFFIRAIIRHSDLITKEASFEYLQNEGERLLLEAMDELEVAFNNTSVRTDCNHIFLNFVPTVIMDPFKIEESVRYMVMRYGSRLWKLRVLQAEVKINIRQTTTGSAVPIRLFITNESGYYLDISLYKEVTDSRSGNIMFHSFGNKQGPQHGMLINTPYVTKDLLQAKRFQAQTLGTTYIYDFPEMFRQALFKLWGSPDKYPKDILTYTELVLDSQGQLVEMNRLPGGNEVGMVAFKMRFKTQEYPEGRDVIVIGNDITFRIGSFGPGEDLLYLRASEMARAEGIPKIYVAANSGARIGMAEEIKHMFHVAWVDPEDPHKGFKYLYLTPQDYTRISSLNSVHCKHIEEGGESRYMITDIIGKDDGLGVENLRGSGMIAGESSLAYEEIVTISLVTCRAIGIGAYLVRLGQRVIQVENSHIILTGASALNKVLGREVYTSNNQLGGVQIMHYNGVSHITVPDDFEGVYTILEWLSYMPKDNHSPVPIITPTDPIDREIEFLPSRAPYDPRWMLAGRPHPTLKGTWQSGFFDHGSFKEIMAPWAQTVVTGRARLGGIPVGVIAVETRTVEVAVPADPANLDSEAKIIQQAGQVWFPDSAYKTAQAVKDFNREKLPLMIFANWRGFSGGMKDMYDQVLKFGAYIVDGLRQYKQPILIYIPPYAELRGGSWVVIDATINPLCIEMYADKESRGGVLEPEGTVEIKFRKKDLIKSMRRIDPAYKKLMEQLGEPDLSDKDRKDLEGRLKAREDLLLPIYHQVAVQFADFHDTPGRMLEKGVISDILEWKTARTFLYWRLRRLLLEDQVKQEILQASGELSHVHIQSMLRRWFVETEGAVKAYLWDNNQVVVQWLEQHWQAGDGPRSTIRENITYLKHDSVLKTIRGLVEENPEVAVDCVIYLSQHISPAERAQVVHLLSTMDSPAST

SMILES | IC50
CCNC(=O)C(C)c1ccc(C2CCN(c3ccnc(OCC)c3)CC2)cc1 (stereo not drawn) [Example 1.6] | 510 nM
CCOc1ccc(N2CCC(c3ccc(C(C)C(=O)NC4CC4)cc3)CC2)c(F)c1 (stereo not drawn) [Example 1.13] | 140 nM
CCNC(=O)C(C)c1ccc(C2CCN(c3ccnc(N(C)C4CCCC4)n3)CC2)cc1 (stereo not drawn) [Example 5.1, 2-(4-{1-[2-(Cyclopentyl-methyl-amino)-pyrimidin-4-yl]-piperidin-4-yl}-phenyl)-N-ethyl-propionamide] | 370 nM
CCNC(=O)C(C)c1ccc(C2CCN(c3ccc(OC4CC4)cc3OC)CC2)cc1 (stereo not drawn) [Example 1.11] | 520 nM
CCOc1ccc(N2CCC(c3ccc(C(C)C(=O)NCC4CC4)cc3)CC2)cc1 (stereo not drawn) [Example 4.16] | 650 nM
CC(C(=O)NC1CC1)c1ccc(C2CCN(c3ccc(OCC4CC4)cc3C#N)CC2)cc1 (stereo not drawn) [Example 3.1, 2-{4-[1-(2-Cyano-4-cyclopropylmethoxy-phenyl)-piperidin-4-yl]-phenyl}-N-cyclopropyl-propionamide] | 150 nM
CCNC(=O)C(C)c1ccc(C2CCN(c3ccc(OC)cc3C#N)CC2)cc1 (stereo not drawn) [Example 3.2] | 450 nM
CCCNC(=O)C(C)c1ccc(C2CCN(c3ccc(OCC)cc3)CC2)cc1 (stereo not drawn) [Example 4.15] | 290 nM
CCOc1ccc(N2CCC(c3ccc(C(C)C(N)=O)cc3)CC2)cc1 (stereo not drawn) [Example 4.17] | 770 nM
CN(c1nccc(N2CCC(c3ccc(CC(=O)NC4CCCC4)cc3)CC2)n1)C1CCCC1 [Example 4.10] | 4180 nM
CCOc1ccc(N2CCC(c3ccc(C(C)C(=O)N(C)CC)cc3)CC2)cc1 (stereo not drawn) [Example 4.5] | 5210 nM
CCNC(=O)C(C)c1ccc(C2CCN(c3ccnc(NC(C)C)n3)CC2)cc1 (stereo not drawn) [Example 5.3] | 7630 nM
CC(C(=O)NC1CC1)c1ccc(C2CCN(c3ccc(OCC4CC4)cc3)CC2)cc1 (stereo not drawn) [Example 1.14] | 80 nM
CCCOc1ccc(N2CCC(c3ccc(C(C)C(=O)NCC)cc3)CC2)c(OC)c1 (stereo not drawn) [Example 1.7] | 320 nM
CCNC(=O)C(C)c1ccc(C2CCN(c3ccc(OCC)cc3)CC2)cc1 (stereo not drawn) [Example 1.1, 2-{-4-[1-(4-Ethoxy-phenyl)-piperidin-4-yl]-phenyl}-N-ethyl-propionamide] | 240 nM
CCNC(=O)C(C)c1ccc(C2CCN(c3ccc(OC(C)C)cc3OC)CC2)cc1 (stereo not drawn) [Example 1.9] | 510 nM
COCCNC(=O)Cc1ccc(C2CCN(c3ccnc(N(C)C4CCCC4)n3)CC2)cc1 [Example 4.14] | 4830 nM
CCCOc1ccc(N2CCC(c3ccc(C(C)C(=O)NC4CC4)cc3)CC2)c(C#N)c1 (stereo not drawn) [Example 3.4] | 120 nM
CCOc1ccc(N2CCC(c3ccc(C(C)C(=O)Nc4ccccc4)cc3)CC2)cc1 (stereo not drawn) [Example 4.6] | 80 nM
CN(c1nccc(N2CCC(c3ccc(CC(N)=O)cc3)CC2)n1)C1CCCC1 [Example 4.7] | 1260 nM

SMILES | IC50
CCNC(=O)C(C)c1ccc(C2CCN(c3ccc(OC4CC4)cc3)CC2)cc1 (stereo not drawn) [Example 1.2] | 210 nM
CCNC(=O)C(C)c1ccc(C2CCN(c3ccc(OC(C)CC)cc3)CC2)cc1 (stereo not drawn) [Example 1.4] | 890 nM
CCOc1ccc(N2CCC(c3ccc(C(C)C(=O)N(C)C)cc3)CC2)cc1 (stereo not drawn) [Example 4.4] | 6650 nM
CCNC(=O)C(C)c1ccc(C2CCN(c3ccc(OC4CCC4)cc3OC)CC2)cc1 (stereo not drawn) [Example 2.2] | 250 nM
CCOc1ccc(N2CCC(c3ccc(C(C)C(=O)NC4CC4)cc3)CC2)c(C#N)c1 (stereo not drawn) [Example 3.3] | 140 nM
CCNC(=O)C(C)c1ccc(C2CCN(c3ccc(OCC4CC4)cc3)CC2)cc1 (stereo not drawn) [Example 1.3] | 240 nM
CCN(C)C(=O)Cc1ccc(C2CCN(c3ccnc(N(C)C4CCCC4)n3)CC2)cc1 [Example 4.8] | 12500 nM
CCNC(=O)C(C)c1ccc(C2CCN(c3ccnc(N(C)C)n3)CC2)cc1 (stereo not drawn) [Example 5.2] | 630 nM
CCNC(=O)C(C)c1ccc(C2CCN(c3ccc(OC4CCC4)cc3)CC2)cc1 (stereo not drawn) [Example 1.5] | 120 nM
CC(C)CNC(=O)Cc1ccc(C2CCN(c3ccnc(N(C)C4CCCC4)n3)CC2)cc1 [Example 4.13] | 1860 nM
CCNC(=O)Cc1ccc(C2CCN(c3ccnc(N(C)C4CCCC4)n3)CC2)cc1 [Example 4.2] | 400 nM
CCNC(=O)C(C)c1ccc(C2CCN(c3ccc(OCC4CC4)cc3OC)CC2)cc1 (stereo not drawn) [Example 2.1, 2-{-4-[1-(4-Cyclopropylmethoxy-2-methoxy-phenyl)-piperidin-4-yl]-phenyl}-N-ethyl-propionamide] | 750 nM
CN(c1nccc(N2CCC(c3ccc(CC(=O)N4CCOCC4)cc3)CC2)n1)C1CCCC1 [Example 4.9] | 5530 nM
CCOc1ccc(N2CCC(c3ccc(C(C)C(=O)NC)cc3)CC2)cc1 (stereo not drawn) [Example 4.3] | 760 nM
CN(c1nccc(N2CCC(c3ccc(CC(=O)Nc4ccccc4)cc3)CC2)n1)C1CCCC1 [Example 4.11] | 720 nM
CCNC(=O)C(C)c1ccc(C2CCN(c3ccc(OCC)cc3F)CC2)cc1 (stereo not drawn) [Example 1.12] | 330 nM
CCOc1ccc(N2CCC(c3ccc(C(C)C(=O)NC4CC4)cc3)CC2)cc1 (stereo not drawn) [Example 4.1, N-Cyclopropyl-2-{4-[1-(4-ethoxy-phenyl)-piperidin-4-yl]-phenyl}-propionamide] | 100 nM
CN(c1nccc(N2CCC(c3ccc(CC(=O)NCc4ccccc4)cc3)CC2)n1)C1CCCC1 [Example 4.12] | 7940 nM
CCCOc1ccc(N2CCC(c3ccc(C(C)C(=O)NCC)cc3)CC2)cc1 (stereo not drawn) [Example 1.8] | 180 nM

Further lines, results first:

IC50 | SMILES
4840 nM | CCNC(=O)C(C)c1ccc(N2CCC(c3cccc(OCC)c3)CC2)cc1 (stereo not drawn) [Example 7.13]
3850 nM | CCCOc1cccc(C2CCN(c3ccc(C(C)C(=O)NCC)cc3)CC2)c1 (stereo not drawn) [Example 7.11]
1650 nM | CCNC(=O)C(C)c1ccc(N2CCC(c3cccc(OC4CCC4)c3)CC2)cc1 (stereo not drawn) [Example 7.8]
2310 nM | CCNC(=O)C(C)c1ccc(N2CCC(c3cccc(OCC4CC4)c3)CC2)cc1 (stereo not drawn) [Example 7.6]
840 nM | CCCOc1ccc(C2CCN(c3ccc(C(C)C(=O)NCC)cc3)CC2)c(C)c1 (stereo not drawn) [Example 7.10]
1800 nM | CCNC(=O)C(C)c1ccc(N2CCC(c3cccc(OC(C)C)c3)CC2)cc1 (stereo not drawn) [Example 7.12]
1000 nM | CCNC(=O)C(C)c1ccc(N2CCC(c3ccc(OCC)cc3)CC2)cc1 (stereo not drawn) [Example 7.1, 2-{4-[4-(4-Ethoxy-phenyl)-piperidin-1-yl]-phenyl}-N-ethyl-propionamide]
120 nM | CCNC(=O)C(C)c1ccc(N2CCC(c3ccc(OC4CCC4)cc3)CC2)cc1 (stereo not drawn) [Example 7.9]
220 nM | CCCOc1ccc(C2CCN(c3ccc(C(C)C(=O)NCC)cc3)CC2)cc1 (stereo not drawn) [Example 7.4]
5480 nM | CCNC(=O)C(C)c1ccc(C2CCN(c3ccnc(OCC)n3)CC2)cc1 (stereo not drawn) [Example 6.1, 2-{4-[1-(2-Ethoxy-pyrimidin-4-yl)-piperidin-4-yl]-phenyl}-N-ethyl-propionamide]
890 nM | CCOc1ccc(C2CCN(c3ccc(C(C)C(=O)NC4CC4)cc3)CC2)cc1 (stereo not drawn) [Example 7.3]
3050 nM | CCNC(=O)C(C)c1ccc(C2CCN(c3ccnc(OC(C)C)n3)CC2)cc1 (stereo not drawn) [Example 6.2]
340 nM | CCNC(=O)C(C)c1ccc(N2CCC(c3ccc(OC(C)C)cc3)CC2)cc1 (stereo not drawn) [Example 7.7]
1010 nM | CCNC(=O)C(C)c1ccc(N2CCC(c3ccc(OCC4CC4)cc3F)CC2)cc1 (stereo not drawn) [Example 7.2]
360 nM | CCNC(=O)C(C)c1ccc(N2CCC(c3ccc(OCC4CC4)cc3)CC2)cc1 (stereo not drawn) [Example 7.5]
